Common to all, as to type: biochemical
One experiment deals with T1, Caspase-3 (Homo sapiens, UniProt P42574).
T1 sequence (P42574 29-175 limits assumed): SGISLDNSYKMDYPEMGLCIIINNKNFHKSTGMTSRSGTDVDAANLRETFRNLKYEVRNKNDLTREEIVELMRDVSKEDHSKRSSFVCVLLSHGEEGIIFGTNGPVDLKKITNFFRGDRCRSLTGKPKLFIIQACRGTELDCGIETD
T1 sequence (P42574 176-277 limits assumed): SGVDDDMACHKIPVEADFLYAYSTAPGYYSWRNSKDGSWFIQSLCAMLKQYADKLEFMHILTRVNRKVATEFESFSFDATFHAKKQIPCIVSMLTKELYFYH
Kind of experiment: Kinetic compound screening, progress curve method, caspase-3. Particulars: for Ki(app) Caspase-3: Table III, Ki(app) = Kass or Kobs/I, 5 nM active caspase-3; for Caspase-3 Ki(app): Table IV. The text has this:
(§1) Table III below presents Ki(app) values for select AB compounds. Ki(app) values (also called Kass or Kobs/I) represent the speed of inhibitor binding to a target enzyme. Units are [M^−1s^−1]. NI indicates no inhibition at concentrations tested. Parent compounds AB09, ABo8, and AB07 that include the optimal substrate specificity sequences for caspases-3, […] as determined by Thornberry and colleagues (Thornberry et al., 19970 are included between double lines.
(§2) The inhibitors AB07 (NP-LEHD-AOMK, caspase-9), AB08 (NP-LETD-AOMK, caspase-8), and AB09 (NP-DEVD-AOMK, caspase-3) were synthesized and kinetic inhibition constants (Kiapp) were obtained for all compounds for caspases 3, 7, 8 and 9 using the progress curve method for pseudo-first order reactions kinetics (Salvesen, 1989) (structures shown in Table I). […] Ki(app) values (also called Kass or Kobs/I) represent the speed of inhibitor binding to a target enzyme. Units are [M-1s-1]. NI indicates no inhibition at concentrations tested, ND indicates data not determined, SD indicates standard deviation.
(§3) Compound screening was completed using the progress curve method as described (Salvesen, 1989). All screening was carried out in caspase reaction buffer. The caspase-9 specific compounds AB38, 40, 41 and 42 were screened in caspase reaction buffer and in caspase buffer with 1M sodium citrate instead of sucrose as described (Pop, 2006) The concentrations of active caspases used is as follows: 5 nM active caspase-3, 5 nM active caspase-7, 10 nM active caspase-8, and 50 nM active caspase-9. To ensure full activation, caspases 3/7, 8 and 9 were preincubated at 37° C. for 5, 10, or 40 minutes respectively before kinetic measurements were made.

For a further experiment, the target named is T2, Caspase-7 (Homo sapiens, UniProt P55210).
T2 sequence (P55210 1-303): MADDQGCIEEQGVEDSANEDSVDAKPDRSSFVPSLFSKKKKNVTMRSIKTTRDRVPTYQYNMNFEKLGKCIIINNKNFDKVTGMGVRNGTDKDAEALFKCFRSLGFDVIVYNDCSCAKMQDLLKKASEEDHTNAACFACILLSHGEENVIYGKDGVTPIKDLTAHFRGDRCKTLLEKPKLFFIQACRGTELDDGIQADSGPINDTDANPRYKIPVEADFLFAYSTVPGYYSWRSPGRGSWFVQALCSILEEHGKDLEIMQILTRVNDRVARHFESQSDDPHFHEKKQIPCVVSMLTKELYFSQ
Kind of experiment: Kinetic compound screening, progress curve method, caspase-7. Particulars: for Ki(app) Caspase-7: Table III, Ki(app) = Kass or Kobs/I, 5 nM active caspase-7; for Caspase-7 Ki (app): Table IV.
Source text: as §1, §2, §3

A further experiment has as its target Caspase-8 (Homo sapiens, UniProt Q14790). The experiment is described as follows: Kinetic compound screening, progress curve method, caspase-8. Particulars: for Ki(app) Caspase-8: Table III, Ki(app) = Kass or Kobs/I, 10 nM active caspase-8; for Caspase-8 Ki (app): Table IV, NI = no inhibition at concentrations tested.
Source text: as §1, §2, §3

The target of another experiment is T3, Caspase-9 (Homo sapiens, UniProt P55211).
T3 sequence (P55211 1-416): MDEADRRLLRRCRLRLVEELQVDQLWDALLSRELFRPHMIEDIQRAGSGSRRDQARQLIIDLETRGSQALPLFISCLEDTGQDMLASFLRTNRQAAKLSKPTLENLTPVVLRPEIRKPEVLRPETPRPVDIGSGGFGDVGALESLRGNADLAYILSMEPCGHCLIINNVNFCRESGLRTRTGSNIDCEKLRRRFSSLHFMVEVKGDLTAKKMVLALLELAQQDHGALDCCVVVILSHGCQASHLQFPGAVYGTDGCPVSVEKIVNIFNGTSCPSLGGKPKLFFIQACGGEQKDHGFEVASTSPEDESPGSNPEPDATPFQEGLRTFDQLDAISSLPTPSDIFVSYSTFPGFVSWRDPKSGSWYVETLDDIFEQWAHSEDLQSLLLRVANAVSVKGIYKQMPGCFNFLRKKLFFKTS
The experiment is described as follows: Kinetic compound screening, progress curve method, caspase-9. The conditions noted are these: for Ki(app) Caspase-9: Table III, Ki(app) = Kass or Kobs/I, 50 nM active caspase-9; for Ki(app) Caspase-9 / Caspase-9 Ki (app): NI = no inhibition at concentrations tested; for Caspase-9 Ki (app): Table IV.
Source text: as §1, §2, §3

Molecules are shown by their SMILES.

Sequence of Caspase-8 (Q14790 217-479): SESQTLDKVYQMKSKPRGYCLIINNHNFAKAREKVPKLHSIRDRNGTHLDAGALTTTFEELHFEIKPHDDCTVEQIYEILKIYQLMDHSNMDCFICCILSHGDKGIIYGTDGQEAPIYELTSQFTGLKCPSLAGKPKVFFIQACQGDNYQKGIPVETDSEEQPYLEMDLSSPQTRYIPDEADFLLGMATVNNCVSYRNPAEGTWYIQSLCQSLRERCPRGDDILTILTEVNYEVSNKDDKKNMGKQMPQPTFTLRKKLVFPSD

With `Cc1ccc(C[C@H](NC(=O)Cc2ccc(O)c([N+](=O)[O-])c2)C(=O)N[C@@H](CCC(=O)O)C(=O)N[C@H](C(=O)N[C@@H](CC(=O)O)C(=O)COC(=O)c2c(C)cccc2C)C(C)O)cc1` (stereo partly drawn) [AB20, Np-29-E-T-D-DMBA], at Caspase-3, the “Ki(app) Caspase-3” value was 570,900 M^−1s^−1 and the “Caspase-3 Ki(app)” value is listed as 570,900 M-1s-1. Moreover, at Caspase-7, the “Ki(app) Caspase-7” value was 181,332 M^−1s^−1 and the “Caspase-7 Ki (app)” value is listed as 181,332 M-1s-1. Also, at Caspase-8, the “inhibition of caspase-8, in words” value is reported as “highest kinetic inhibition constants for caspase-8 that we have measured so far”; the “Ki(app) Caspase-8” value was 1,071,401 M^−1s^−1; the “Caspase-8 Ki (app)” value is reported as 1,071,401 M-1s-1. At Caspase-9, the “Ki(app) Caspase-9” value is 41,300 M^−1s^−1 and the “Caspase-9 Ki (app)” value is 41,300 M-1s-1.
`Cc1cccc(C)c1C(=O)OCC(=O)[C@H](CC(=O)O)NC(=O)C1CCCN1C(=O)[C@@H](CCC(=O)O)NC(=O)[C@H](CC(=O)O)NC(=O)Cc1ccc(O)c([N+](=O)[O-])c1` (stereo partly drawn) [AB11, NP-D-E- P-D-DMBA]: at Caspase-3, the “Ki(app) Caspase-3” value is 2,482,333 M^−1s^−1 and the “Caspase-3 Ki(app)” value is given as 2,482,333 M-1s-1. Besides, at Caspase-7, the “Ki(app) Caspase-7” value was 199,341 M^−1s^−1 and the “Caspase-7 Ki (app)” value was 199,341 M-1s-1. Also, at Caspase-8, the “Ki(app) Caspase-8” value is recorded as 580,547 M^−1s^−1 and the “Caspase-8 Ki (app)” value was 580,547 M-1s-1. Also, at Caspase-9, the “Ki(app) Caspase-9” value is listed as 47,362 M^−1s^−1 and the “Caspase-9 Ki (app)” value was 47,362 M-1s-1.
Regarding `Cc1cccc(C)c1C(=O)OCC(=O)[C@H](CC(=O)O)NC(=O)[C@@H](NC(=O)[C@H](CCC(=O)O)NC(=O)[C@H](Cc1ccc(I)cc1)NC(=O)Cc1ccc(O)c([N+](=O)[O-])c1)C1Cc2ccccc2C1` [AB19, NP-31-E-23-D-DMBA], on Caspase-3, the “Ki(app) Caspase-3” value is listed as 179,086 M^−1s^−1 and the “Caspase-3 Ki(app)” value is 179,086 M-1s-1. Besides, on Caspase-7, the “Ki(app) Caspase-7” value is recorded as 42,994 M^−1s^−1 and the “Caspase-7 Ki (app)” value is recorded as 42,994 M-1s-1. At Caspase-8, the “inhibition of caspase-8, in words” value was “retained relatively good potency for caspase-8”; the “Ki(app) Caspase-8” value is 396,225 M^−1s^−1; the “Caspase-8 Ki (app)” value was 396,225 M-1s-1. Further, the “activity for caspase-9, in words” value on Caspase-9 is “no measurable activity for caspase-9”.
For the compound `Cc1cccc(C)c1C(=O)OCC(=O)[C@H](CC(=O)O)NC(=O)[C@H](Cc1cc[nH]c1)NC(=O)[C@H](CCC(=O)O)NC(=O)[C@H](CC(C)C)NC(=O)Cc1ccc(O)c([N+](=O)[O-])c1` [AB07, Np-L-E- H-D-DMBA], at Caspase-3, the “Ki(app) Caspase-3” value is given as 75,295 M^−1s^−1 and the “Caspase-3 Ki(app)” value is 75,295 M-1s-1. Also, on Caspase-7, the “Ki(app) Caspase-7” value is listed as 10,447 M^−1s^−1 and the “Caspase-7 Ki (app)” value is reported as 10,447 M-1s-1. Besides, at Caspase-8, the “inhibition of caspase-8, in words” value is “more rapid inhibition of caspase-8”; the “Ki(app) Caspase-8” value is given as 506,912 M^−1s^−1; the “Caspase-8 Ki (app)” value was 506,912 M-1s-1. In addition, at Caspase-9, the “Ki(app) Caspase-9” value is recorded as 20,141 M^−1s^−1 and the “Caspase-9 Ki (app)” value amounted to 41 M⁻¹ s⁻¹.
In the case of `Cc1cccc(C)c1C(=O)OCC(=O)[C@H](CC(=O)O)NC(=O)[C@@H](NC(=O)[C@@H](NC(=O)[C@H](CC(=O)O)NC(=O)Cc1ccc(O)c([N+](=O)[O-])c1)c1ccccc1)C(C)C` [AB13, Np-D-E-34-V-D-DMBA], at Caspase-3, the “Ki(app) Caspase-3” value is reported as 3,416,050 M^−1s^−1 and the “Caspase-3 Ki(app)” value is 3,416,050 M-1s-1. Also, at Caspase-7, the “Ki(app) Caspase-7” value is recorded as 279,519 M^−1s^−1 and the “Caspase-7 Ki (app)” value is given as 279,519 M-1s-1. In addition, at Caspase-8, the “Ki(app) Caspase-8” value is given as <5,000 M^−1s^−1 and the “Caspase-8 Ki (app)” value is recorded as <5,000 M-1s-1.
Consider `Cc1ccc(C[C@H](NC(=O)[C@H](CC(=O)O)NC(=O)Cc2ccc(O)c([N+](=O)[O-])c2)C(=O)N[C@H](C(=O)N[C@@H](CC(=O)O)C(=O)COC(=O)c2c(C)cccc2C)C(C)C)cc1` [AB12, Np-D-E-29-V-D-DMBA], for which, at Caspase-3, the “Ki(app) Caspase-3” value was 5,652,900 M^−1s^−1 and the “Caspase-3 Ki(app)” value is on record as 5,652,900 M-1s-1. Besides, at Caspase-7, the “Ki(app) Caspase-7” value is on record as 783,840 M^−1s^−1 and the “Caspase-7 Ki (app)” value is 783,840 M-1s-1. On Caspase-8, the “Ki(app) Caspase-8” value was 271,626 M^−1s^−1 and the “Caspase-8 Ki (app)” value is reported as 271,626 M-1s-1.
Regarding `Cc1cccc(C)c1C(=O)OCC(=O)[C@H](CC(=O)O)NC(=O)C1(NC(=O)[C@H](CCC(=O)O)NC(=O)[C@H](CC(=O)O)NC(=O)Cc2ccc(O)c([N+](=O)[O-])c2)CC1` [AB29, Np-D-E-11-D-DMBA], the “Caspase-3 Ki(app)” value at Caspase-3 was 341,429 M-1s-1. In addition, at Caspase-8, the “Caspase-8 Ki (app)” value was 90,503 M-1s-1.
For `Cc1cccc(C)c1C(=O)OCC(=O)[C@H](CC(=O)O)NC(=O)[C@@H](NC(=O)[C@@H](NC(=O)[C@H](Cc1ccc2ccccc2c1)NC(=O)Cc1ccc(O)c([N+](=O)[O-])c1)c1ccccc1)C(C)C` [AB15, Np-26-34-V-D-DMBA], the “Caspase-3 Ki(app)” value on Caspase-3 is listed as 133,705 M-1s-1.
Turning to `Cc1cccc(C)c1C(=O)OCC(=O)[C@H](CC(=O)O)NC(=O)[C@@H](NC(=O)C(CCC(=O)O)NC(=O)[C@H](Cc1ccc2ccccc2c1)NC(=O)Cc1ccc(O)c([N+](=O)[O-])c1)C(C)C` (stereo partly drawn) [AB17, Np-26-E-V-D-DMBA], on Caspase-3, the “Ki(app) Caspase-3” value is reported as 781,733 M^−1s^−1 and the “Caspase-3 Ki(app)” value was 781,733 M-1s-1. Also, on Caspase-7, the “Ki(app) Caspase-7” value is listed as 448,155 M^−1s^−1 and the “Caspase-7 Ki (app)” value was 448,155 M-1s-1. Also, at Caspase-8, the “Ki(app) Caspase-8” value is 126,323 M^−1s^−1 and the “Caspase-8 Ki (app)” value is 126,323 M-1s-1.
For the compound `Cc1ccc(C[C@H](NC(=O)[C@H](CC(=O)O)NC(=O)Cc2ccc(O)c([N+](=O)[O-])c2)C(=O)NC2(C(=O)N[C@@H](CC(=O)O)C(=O)COC(=O)c3c(C)cccc3C)CC2)cc1` [AB30, Np-D-30-11-D-DMBA], the “Caspase-3 Ki(app)” value at Caspase-3 is given as 448,179 M-1s-1.
Regarding `Cc1cccc(C)c1C(=O)OCC(=O)[C@H](CC(=O)O)NC(=O)[C@@H](NC(=O)[C@H](Cc1ccccn1)NC(=O)[C@H](Cc1ccc2ccccc2c1)NC(=O)Cc1ccc(O)c([N+](=O)[O-])c1)C(C)C` [AB16, Np-26-3-V-D-DMBA], on Caspase-3, the “Ki(app) Caspase-3” value is on record as 484,495 M^−1s^−1 and the “Caspase-3 Ki(app)” value was 484,495 M-1s-1. Besides, on Caspase-7, the “Ki(app) Caspase-7” value was 24,185 M^−1s^−1 and the “Caspase-7 Ki (app)” value was 24,185 M-1s-1. On Caspase-8, the “Ki(app) Caspase-8” value was 121,650 M^−1s^−1 and the “Caspase-8 Ki (app)” value is given as 121,650 M-1s-1.
As for `Cc1ccc(C[C@@H](NC(=O)[C@H](CC(=O)O)NC(=O)Cc2ccc(O)c([N+](=O)[O-])c2)C(=O)N[C@H](C(=O)N[C@@H](CC(=O)O)C(=O)COC(=O)c2c(C)cccc2C)C(C)C)cc1` [AB31, Np-D-30-V-D-DMBA], at Caspase-3, the “Caspase-3 Ki(app)” value is listed as 64,873 M-1s-1.

Values taken from patent US20100068150A1, “Selective Caspase Inhibitors” (The Board of Trustees of the Leland Stanford Junior …, priority 2006, published 2010).
